What was measured:
[1] = system: bicistronic HCV replicon (replicon RNA, GenBank Accession No. AJ242654); assay: HCV Replicon Assay; assay type: cell-based; conditions: Hepatitis C virus, 72 h, read-out: Replicon IC50

CC(C)c1ccc2c(C#N)c(-c3ccc(S(=O)(=O)NC(CF)CF)cn3)n(CC3CC3)c2c1 [compound 460, 6-[3-cyano-1-(cyclopropylmethyl)-6-(propan-2-yl)-1H-indol-2-yl]-N-(1,3-difluoropropan-2-yl)pyridine-3-sulfonamide]
melting point: 132 to 134 °C
IC50 [1]: < 500 nM

CC(C)NS(=O)(=O)c1cnc(-c2c(C(N)=O)c3cc(Cl)ccc3n2C2CCC2)nc1 [compound 745, 5-chloro-1-cyclobutyl-2-[5-(propan-2-ylsulfamoyl)pyrimidin-2-yl]-1H-indole-3-carboxamide]
melting point: 245 to 247 °C
IC50 [1]: < 500 nM

COc1ccc2c(C#N)c(-c3ccc(NS(=O)(=O)C(C)(C)C)nn3)n(C3CCC3)c2c1 [compound 278, N-[6-(3-cyano-1-cyclobutyl-6-methoxy-1H-indol-2-yl)pyridazin-3-yl]-2-methylpropane-2-sulfonamide]
melting point: 218 to 220 °C
IC50 [1]: 500 to 2000 nM

Cc1cc2c(cc1F)c(C#N)c(-c1ccc(S(=O)(=O)N[C@@H](C)C(F)(F)F)cn1)n2-c1ccc(C#N)s1 [compound 1033, 6-[3-cyano-1-(5-cyanothiophen-2-yl)-5-fluoro-6-methyl-1H-indol-2-yl]-N-[(2S)-1,1,1-trifluoropropan-2-yl]pyridine-3-sulfonamide]
melting point: 182 to 184.6 °C
IC50 [1]: < 500 nM

C[C@H](NS(=O)(=O)c1ccc(-c2c(C#N)c3cc(F)c(C4CC4)cc3n2C2CCCC2)nc1)C(F)(F)F [compound 661, 6-(3-cyano-1-cyclopentyl-6-cyclopropyl-5-fluoro-1H-indol-2-yl)-N-[(2S)-1,1,1-trifluoropropan-2-yl]pyridine-3-sulfonamide]
melting point: 189 to 190 °C
IC50 [1]: < 500 nM

CCc1cc2c(cc1F)c(C(N)=O)c(-c1ccc(S(=O)(=O)N[C@@H](C)C(F)(F)F)cn1)n2-c1cc(Cl)ccn1 [compound 1048, 1-(4-chloropyridin-2-yl)-6-ethyl-5-fluoro-2-(5-{[(2S)-1,1,1-trifluoropropan-2-yl]sulfamoyl}pyridin-2-yl)-1H-indole-3-carboxamide]
melting point: 200 to 204 °C
IC50 [1]: 500 to 2000 nM

CCc1cc2c(cc1F)c(C(N)=O)c(-c1ccc(S(=O)(=O)N[C@@H](C)C(F)(F)F)cn1)n2-c1ccc(C)cc1 [compound 1021, 6-ethyl-5-fluoro-1-(4-methylphenyl)-2-(5-{[(2S)-1,1,1-trifluoropropan-2-yl]sulfamoyl}pyridin-2-yl)-1H-indole-3-carboxamide]
melting point: 228 to 233 °C
IC50 [1]: < 500 nM

COc1ccc2c(C#N)c(-c3ccc(S(=O)(=O)NC(CF)CF)cn3)n(C3CCC3)c2c1 [compound 229, 6-(3-cyano-1-cyclobutyl-6-methoxy-1H-indol-2-yl)-N-(1,3-difluoropropan-2-yl)pyridine-3-sulfonamide]
melting point: 174 to 177 °C
IC50 [1]: < 500 nM

Cc1cc2c(cc1F)c(C#N)c(-c1ncc(S(=O)(=O)NC(CF)CF)cn1)n2C1CCC1 [compound 146, 2-(3-cyano-1-cyclobutyl-5-fluoro-6-methyl-1H-indol-2-yl)-N-(1,3-difluoropropan-2-yl)pyrimidine-5-sulfonamide]
melting point: 243 to 249 °C
IC50 [1]: < 500 nM

CCc1cc(F)c2c(C(N)=O)c(-c3ccc(NS(=O)(=O)C(C)(C)C)cn3)n(C3CCC3)c2c1 [compound 1110, 2-{5-[(tert-butylsulfonyl)amino]pyridin-2-yl}-1-cyclobutyl-6-ethyl-4-fluoro-1H-indole-3-carboxamide]
melting point: 259 to 263 °C
IC50 [1]: < 500 nM

N#Cc1c(-c2ncc(S(=O)(=O)NC(CF)CF)cn2)n(C2CCC2)c2cc(F)ccc12 [compound 163, 2-(3-cyano-1-cyclobutyl-6-fluoro-1H-indol-2-yl)-N-(1,3-difluoropropan-2-yl)pyrimidine-5-sulfonamide]
melting point: 193 to 195 °C
IC50 [1]: 500 to 2000 nM

CC(C)n1c(-c2ccc(S(=O)(=O)NC(CF)CF)cn2)c(C#N)c2ccc(OC(F)(F)F)cc21 [compound 69, 6-[3-cyano-1-(propan-2-yl)-6-(trifluoromethoxy)-1H-indol-2-yl]-N-(1,3-difluoropropan-2-yl)pyridine-3-sulfonamide]
melting point: 116 to 117 °C
IC50 [1]: < 500 nM

Cc1cc2c(cc1F)c(C#N)c(-c1ccc(S(=O)(=O)NC(C)(C)C(F)(F)F)cn1)n2C1CCCCC1 [compound 705, 6-(3-cyano-1-cyclohexyl-5-fluoro-6-methyl-1H-indol-2-yl)-N-(1,1,1-trifluoro-2-methylpropan-2-yl)pyridine-3-sulfonamide]
melting point: 248 to 254 °C
IC50 [1]: < 500 nM

C[C@@H](NS(=O)(=O)c1ccc(-c2c(C#N)c3cc(F)c(OC(F)F)cc3n2CC2CC2)nc1)C(F)(F)F [compound 789, 6-[3-cyano-1-(cyclopropylmethyl)-6-(difluoromethoxy)-5-fluoro-1H-indol-2-yl]-N-[(2R)-1,1,1-trifluoropropan-2-yl]pyridine-3-sulfonamide]
melting point: 148 to 153 °C
IC50 [1]: < 500 nM

Cc1ccc2c(C#N)c(-c3ccc(S(=O)(=O)N[C@H](C)C(F)(F)F)cn3)n(-c3ncccn3)c2c1 [compound 688, 6-[3-cyano-6-methyl-1-(pyrimidin-2-yl)-1H-indol-2-yl]-N-[(2R)-1,1,1-trifluoropropan-2-yl]pyridine-3-sulfonamide]
melting point: 196 to 198 °C
IC50 [1]: < 500 nM

CC(C)NS(=O)(=O)c1cnc(-c2c(C#N)c3ccc(OC(F)F)cc3n2C2CCC2)nc1 [compound 127, 2-[3-cyano-1-cyclobutyl-6-(difluoromethoxy)-1H-indol-2-yl]-N-(propan-2-yl)pyrimidine-5-sulfonamide]
melting point: 192 to 194 °C
IC50 [1]: < 500 nM

CC(=O)N([C@H](C)C(F)(F)F)S(=O)(=O)c1ccc(-c2c(C#N)c3cc(F)c(C)cc3n2C2CCCC2)nc1 [compound 709, N-{[6-(3-cyano-1-cyclopentyl-5-fluoro-6-methyl-1H-indol-2-yl)pyridin-3-yl]sulfonyl}-N-[(2R)-1,1,1-trifluoropropan-2-yl]acetamide]
melting point: 162 to 163 °C
IC50 [1]: < 500 nM

CCc1cc2c(cc1F)c(C#N)c(-c1ccc(S(=O)(=O)N[C@@H](C)C(F)(F)F)cn1)n2-c1ccc(C(F)(F)F)cc1 [compound 1006, 6-{3-cyano-6-ethyl-5-fluoro-1-[4-(trifluoromethyl)phenyl]-1H-indol-2-yl}-N-[(2S)-1,1,1-trifluoropropan-2-yl]pyridine-3-sulfonamide]
melting point: 276 to 282 °C
IC50 [1]: 500 to 2000 nM

CC(C)(C)S(=O)(=O)Nc1ccc(-c2c(C(N)=O)c3c(F)cc(C4CC4)cc3n2-c2ccc(F)cc2)cn1 [compound 1105, 2-{6-[(tert-butylsulfonyl)amino]pyridin-3-yl}-6-cyclopropyl-4-fluoro-1-(4-fluorophenyl)-1H-indole-3-carboxamide]
melting point: 290 to 295 °C
IC50 [1]: < 500 nM

CC(C)(NS(=O)(=O)c1ccc(-c2c(C#N)c3ccc(OC(F)F)cc3n2C2CCCC2)nc1)C(F)(F)F [compound 382, 6-[3-cyano-1-cyclopentyl-6-(difluoromethoxy)-1H-indol-2-yl]-N-(1,1,1-trifluoro-2-methylpropan-2-yl)pyridine-3-sulfonamide]
melting point: 170 to 174 °C
IC50 [1]: < 500 nM

Cc1cncc(-n2c(-c3ccc(S(=O)(=O)N[C@@H](C)C(F)(F)F)cn3)c(C#N)c3cc(F)c(C)cc32)n1 [compound 915, 6-[3-cyano-5-fluoro-6-methyl-1-(6-methylpyrazin-2-yl)-1H-indol-2-yl]-N-[(2S)-1,1,1-trifluoropropan-2-yl]pyridine-3-sulfonamide]
melting point: 211 to 215 °C
IC50 [1]: < 500 nM

C[C@H](NS(=O)(=O)c1cnc(-c2c(C#N)c3ccc(C4CC4)cc3n2C2CCC2)nc1)C1CC1 [compound 131, 2-(3-cyano-1-cyclobutyl-6-cyclopropyl-1H-indol-2-yl)-N-[(1S)-1-cyclopropylethyl]pyrimidine-5-sulfonamide]
melting point: 165 to 167 °C
IC50 [1]: < 500 nM

Cc1cc2c(cc1O)c(C#N)c(-c1ccc(S(=O)(=O)N[C@@H](C)C(F)(F)F)cn1)n2C1CCCC1 [compound 691, 6-(3-cyano-1-cyclopentyl-5-hydroxy-6-methyl-1H-indol-2-yl)-N-[(2S)-1,1,1-trifluoropropan-2-yl]pyridine-3-sulfonamide]
melting point: 232 to 233 °C
IC50 [1]: < 500 nM

Cc1cc2c(cc1F)c(C(N)=O)c(-c1ccc(S(=O)(=O)N[C@H](C)C(F)(F)F)cn1)n2C1CCC1 [compound 732, 1-cyclobutyl-5-fluoro-6-methyl-2-(5-{[(2R)-1,1,1-trifluoropropan-2-yl]sulfamoyl}pyridin-2-yl)-1H-indole-3-carboxamide]
melting point: 195 to 197 °C
IC50 [1]: < 500 nM

N#Cc1c(-c2ccc(S(=O)(=O)NC3(C(F)(F)F)CCC3)cn2)n(C2CCCC2)c2cc(OC(F)F)ccc12 [compound 588, 6-[3-cyano-1-cyclopentyl-6-(difluoromethoxy)-1H-indol-2-yl]-N-[1-(trifluoromethyl)cyclobutyl]pyridine-3-sulfonamide]
melting point: 172 to 176 °C
IC50 [1]: < 500 nM

CCc1cc2c(cc1F)c(C(N)=O)c(-c1ccc(S(=O)(=O)N[C@@H](C)C(F)(F)F)cn1)n2-c1ccnc(C)n1 [compound 982, 6-ethyl-5-fluoro-1-(2-methylpyrimidin-4-yl)-2-(5-{[(2S)-1,1,1-trifluoropropan-2-yl]sulfamoyl}pyridin-2-yl)-1H-indole-3-carboxamide]
melting point: 115 to 120 °C
IC50 [1]: 2000 to 5000 nM

Cc1ccc2c(C#N)c(-c3ncc(S(=O)(=O)N[C@@H](C)C(F)(F)F)cn3)n(-c3ccccn3)c2c1 [compound 475, 2-[3-cyano-6-methyl-1-(pyridin-2-yl)-1H-indol-2-yl]-N-[(2S)-1,1,1-trifluoropropan-2-yl]pyrimidine-5-sulfonamide]
melting point: 210 to 212 °C
IC50 [1]: < 500 nM

N#Cc1c(-c2ccc(S(=O)(=O)NC(CF)CF)cn2)n(C2CCCCC2)c2cc(C3CC3)ccc12 [compound 92, 6-(3-cyano-1-cyclohexyl-6-cyclopropyl-1H-indol-2-yl)-N-(1,3-difluoropropan-2-yl)pyridine-3-sulfonamide]
melting point: 193 to 198 °C
IC50 [1]: < 500 nM

Reference: patent US8735414B2 (priority 2009, dated 2014)
